Tests used:
[1] = target: Delta-type opioid receptor (Homo sapiens, UniProt P41143)
[2] = target: 5-hydroxytryptamine receptor 2B (Homo sapiens, UniProt P41595); assay type: functional, cell-based
[3] = target: Neuronal acetylcholine receptor subunit alpha-4 (Homo sapiens, UniProt P43681)
[4] = target: Gamma-aminobutyric acid receptor subunit alpha-1 (Rattus norvegicus, UniProt P62813); assay type: functional
[5] = target: T1, Cholecystokinin receptor type A (Homo sapiens, UniProt P32238)
T1 sequence (P32238 whole entry): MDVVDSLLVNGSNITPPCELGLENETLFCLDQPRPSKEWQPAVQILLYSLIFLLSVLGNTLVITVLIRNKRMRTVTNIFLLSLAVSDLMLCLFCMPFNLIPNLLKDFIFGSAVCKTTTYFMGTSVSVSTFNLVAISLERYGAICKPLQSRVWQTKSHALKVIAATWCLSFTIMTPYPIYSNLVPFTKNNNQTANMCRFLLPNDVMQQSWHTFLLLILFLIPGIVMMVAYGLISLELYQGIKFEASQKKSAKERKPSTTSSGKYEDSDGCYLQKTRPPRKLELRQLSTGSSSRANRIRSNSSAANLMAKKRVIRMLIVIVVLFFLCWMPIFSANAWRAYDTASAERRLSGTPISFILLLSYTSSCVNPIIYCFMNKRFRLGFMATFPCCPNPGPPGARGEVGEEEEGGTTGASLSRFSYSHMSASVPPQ

[6] = target: T2, Alpha-2A adrenergic receptor (Homo sapiens, UniProt P08913); assay type: functional, cell-based
T2 sequence (P08913 whole entry): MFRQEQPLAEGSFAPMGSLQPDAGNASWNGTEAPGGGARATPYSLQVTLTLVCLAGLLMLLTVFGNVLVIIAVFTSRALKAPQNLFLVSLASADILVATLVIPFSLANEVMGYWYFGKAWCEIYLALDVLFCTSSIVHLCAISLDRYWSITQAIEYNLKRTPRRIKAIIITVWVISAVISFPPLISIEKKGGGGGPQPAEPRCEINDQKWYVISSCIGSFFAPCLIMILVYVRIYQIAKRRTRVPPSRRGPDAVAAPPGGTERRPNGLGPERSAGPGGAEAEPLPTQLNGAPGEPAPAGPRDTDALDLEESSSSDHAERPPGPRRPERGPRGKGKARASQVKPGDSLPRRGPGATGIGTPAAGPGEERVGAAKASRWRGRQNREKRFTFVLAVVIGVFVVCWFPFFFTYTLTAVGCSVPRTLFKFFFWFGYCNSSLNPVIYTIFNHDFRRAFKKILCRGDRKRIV

[7] = target: T3, 5-hydroxytryptamine receptor 2C (Homo sapiens, UniProt P28335)
T3 sequence (P28335 whole entry): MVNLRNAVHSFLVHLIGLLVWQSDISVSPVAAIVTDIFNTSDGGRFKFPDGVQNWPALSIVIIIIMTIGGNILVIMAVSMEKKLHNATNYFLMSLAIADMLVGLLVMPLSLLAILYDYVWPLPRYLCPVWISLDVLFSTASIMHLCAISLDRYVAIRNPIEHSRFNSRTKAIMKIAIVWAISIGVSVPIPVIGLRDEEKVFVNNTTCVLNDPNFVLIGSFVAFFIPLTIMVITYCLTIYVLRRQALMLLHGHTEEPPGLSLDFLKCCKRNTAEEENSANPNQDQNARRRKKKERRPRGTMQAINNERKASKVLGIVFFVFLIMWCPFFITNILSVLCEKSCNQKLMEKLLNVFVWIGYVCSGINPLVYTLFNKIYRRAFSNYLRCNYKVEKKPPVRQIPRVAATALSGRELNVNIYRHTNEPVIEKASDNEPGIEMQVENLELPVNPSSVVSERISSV

[8] = target: T4, Prostaglandin G/H synthase 1 (Rattus norvegicus, UniProt Q63921); assay type: functional
T4 sequence (Q63921 whole entry): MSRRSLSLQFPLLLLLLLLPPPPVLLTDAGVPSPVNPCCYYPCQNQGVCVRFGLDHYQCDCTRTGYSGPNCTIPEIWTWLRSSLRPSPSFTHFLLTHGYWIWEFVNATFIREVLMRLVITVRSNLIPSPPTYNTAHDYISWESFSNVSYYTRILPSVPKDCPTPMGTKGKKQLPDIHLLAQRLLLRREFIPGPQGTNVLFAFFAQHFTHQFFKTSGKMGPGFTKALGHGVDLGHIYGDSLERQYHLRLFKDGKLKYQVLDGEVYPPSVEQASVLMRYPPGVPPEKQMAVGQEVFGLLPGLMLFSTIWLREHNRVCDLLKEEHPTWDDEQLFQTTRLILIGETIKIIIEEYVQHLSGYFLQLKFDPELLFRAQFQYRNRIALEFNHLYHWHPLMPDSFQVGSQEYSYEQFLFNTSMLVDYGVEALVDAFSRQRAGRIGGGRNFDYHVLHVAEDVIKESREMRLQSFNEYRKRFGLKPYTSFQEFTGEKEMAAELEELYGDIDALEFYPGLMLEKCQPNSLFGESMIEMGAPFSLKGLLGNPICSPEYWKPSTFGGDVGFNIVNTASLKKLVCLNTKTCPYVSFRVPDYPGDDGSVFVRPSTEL

[9] = target: T5, Amine oxidase [flavin-containing] A (Homo sapiens, UniProt P21397); assay type: functional
T5 sequence (P21397 whole entry): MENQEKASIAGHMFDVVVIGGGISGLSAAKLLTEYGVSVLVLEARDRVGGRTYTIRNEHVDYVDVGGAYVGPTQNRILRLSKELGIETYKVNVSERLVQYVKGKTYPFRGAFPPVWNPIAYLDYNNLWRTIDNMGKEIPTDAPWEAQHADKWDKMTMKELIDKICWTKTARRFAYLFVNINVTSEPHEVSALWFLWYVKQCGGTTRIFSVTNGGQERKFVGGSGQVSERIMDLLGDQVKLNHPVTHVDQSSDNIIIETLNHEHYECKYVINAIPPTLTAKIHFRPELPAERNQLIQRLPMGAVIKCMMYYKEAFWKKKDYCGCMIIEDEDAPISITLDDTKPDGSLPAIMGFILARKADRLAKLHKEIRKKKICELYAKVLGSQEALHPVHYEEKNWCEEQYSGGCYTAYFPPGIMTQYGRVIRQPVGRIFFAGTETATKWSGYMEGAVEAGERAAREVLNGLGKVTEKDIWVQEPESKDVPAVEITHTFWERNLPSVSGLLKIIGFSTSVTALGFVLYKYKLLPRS

[10] = target: cGMP-inhibited 3',5'-cyclic phosphodiesterase 3A (Homo sapiens, UniProt Q14432); assay type: functional
Chain of cGMP-inhibited 3',5'-cyclic phosphodiesterase 3A (Q14432 whole entry): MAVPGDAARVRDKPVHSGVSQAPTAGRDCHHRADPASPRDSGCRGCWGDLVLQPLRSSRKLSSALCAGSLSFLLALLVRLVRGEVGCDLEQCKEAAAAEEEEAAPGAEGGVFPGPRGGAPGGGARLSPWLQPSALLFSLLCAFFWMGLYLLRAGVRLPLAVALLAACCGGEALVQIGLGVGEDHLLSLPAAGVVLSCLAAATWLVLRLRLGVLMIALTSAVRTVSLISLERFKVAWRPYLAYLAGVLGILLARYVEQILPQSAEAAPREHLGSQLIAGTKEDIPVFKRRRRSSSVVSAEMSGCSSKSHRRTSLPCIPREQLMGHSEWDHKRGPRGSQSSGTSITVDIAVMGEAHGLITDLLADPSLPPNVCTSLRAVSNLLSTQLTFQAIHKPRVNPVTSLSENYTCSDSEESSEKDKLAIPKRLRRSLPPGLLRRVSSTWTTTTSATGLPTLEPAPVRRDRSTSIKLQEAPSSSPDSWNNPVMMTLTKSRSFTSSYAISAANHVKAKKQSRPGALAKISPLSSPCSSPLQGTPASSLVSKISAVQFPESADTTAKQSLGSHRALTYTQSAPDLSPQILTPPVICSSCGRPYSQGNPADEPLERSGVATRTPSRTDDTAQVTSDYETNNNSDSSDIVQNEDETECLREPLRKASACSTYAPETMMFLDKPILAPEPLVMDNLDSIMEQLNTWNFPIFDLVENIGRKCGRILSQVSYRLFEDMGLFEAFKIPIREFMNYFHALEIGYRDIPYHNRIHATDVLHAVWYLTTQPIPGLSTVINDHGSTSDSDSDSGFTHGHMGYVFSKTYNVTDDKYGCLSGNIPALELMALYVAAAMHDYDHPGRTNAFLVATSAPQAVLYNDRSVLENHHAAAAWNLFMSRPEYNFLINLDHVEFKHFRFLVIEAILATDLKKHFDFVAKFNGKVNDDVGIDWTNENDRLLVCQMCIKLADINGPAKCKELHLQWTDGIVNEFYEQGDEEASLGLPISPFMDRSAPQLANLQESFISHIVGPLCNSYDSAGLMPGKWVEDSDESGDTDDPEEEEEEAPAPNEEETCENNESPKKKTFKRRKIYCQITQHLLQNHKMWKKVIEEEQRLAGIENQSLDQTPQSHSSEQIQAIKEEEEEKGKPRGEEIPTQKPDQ

[11] = target: Sodium-dependent noradrenaline transporter (Homo sapiens, UniProt P23975)
Chain of Sodium-dependent noradrenaline transporter (P23975 whole entry): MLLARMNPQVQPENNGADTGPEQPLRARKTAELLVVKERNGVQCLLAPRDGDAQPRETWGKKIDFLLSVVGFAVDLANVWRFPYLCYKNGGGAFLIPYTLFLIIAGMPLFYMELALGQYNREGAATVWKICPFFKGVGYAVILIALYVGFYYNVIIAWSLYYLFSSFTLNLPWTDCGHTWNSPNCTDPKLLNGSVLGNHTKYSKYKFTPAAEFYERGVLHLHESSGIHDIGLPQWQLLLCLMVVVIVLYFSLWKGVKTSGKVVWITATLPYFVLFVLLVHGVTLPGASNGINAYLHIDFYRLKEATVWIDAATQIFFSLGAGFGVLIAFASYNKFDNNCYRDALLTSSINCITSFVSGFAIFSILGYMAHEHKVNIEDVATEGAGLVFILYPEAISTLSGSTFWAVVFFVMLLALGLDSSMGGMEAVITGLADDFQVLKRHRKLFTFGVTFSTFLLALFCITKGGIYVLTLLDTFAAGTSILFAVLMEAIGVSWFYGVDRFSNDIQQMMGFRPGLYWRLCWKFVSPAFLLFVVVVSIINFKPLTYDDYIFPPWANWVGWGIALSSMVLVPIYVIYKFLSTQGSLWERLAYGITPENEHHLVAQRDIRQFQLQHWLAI

Motilin receptor = Motilin receptor (Homo sapiens, UniProt O43193)
Chain of Motilin receptor (O43193 whole entry): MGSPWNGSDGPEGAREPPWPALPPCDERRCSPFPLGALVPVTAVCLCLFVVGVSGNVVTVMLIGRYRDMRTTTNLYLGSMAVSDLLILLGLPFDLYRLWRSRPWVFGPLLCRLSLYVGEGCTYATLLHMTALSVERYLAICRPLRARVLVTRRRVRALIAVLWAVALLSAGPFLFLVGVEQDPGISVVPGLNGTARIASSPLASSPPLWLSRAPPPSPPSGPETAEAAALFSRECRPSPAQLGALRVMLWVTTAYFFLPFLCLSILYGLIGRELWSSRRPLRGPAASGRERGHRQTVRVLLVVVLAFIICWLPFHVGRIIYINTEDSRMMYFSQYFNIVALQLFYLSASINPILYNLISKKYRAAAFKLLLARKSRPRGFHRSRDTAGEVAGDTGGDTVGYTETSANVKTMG
Note: assay procedure not described here.

Chain of 5-hydroxytryptamine receptor 2B (P41595 whole entry): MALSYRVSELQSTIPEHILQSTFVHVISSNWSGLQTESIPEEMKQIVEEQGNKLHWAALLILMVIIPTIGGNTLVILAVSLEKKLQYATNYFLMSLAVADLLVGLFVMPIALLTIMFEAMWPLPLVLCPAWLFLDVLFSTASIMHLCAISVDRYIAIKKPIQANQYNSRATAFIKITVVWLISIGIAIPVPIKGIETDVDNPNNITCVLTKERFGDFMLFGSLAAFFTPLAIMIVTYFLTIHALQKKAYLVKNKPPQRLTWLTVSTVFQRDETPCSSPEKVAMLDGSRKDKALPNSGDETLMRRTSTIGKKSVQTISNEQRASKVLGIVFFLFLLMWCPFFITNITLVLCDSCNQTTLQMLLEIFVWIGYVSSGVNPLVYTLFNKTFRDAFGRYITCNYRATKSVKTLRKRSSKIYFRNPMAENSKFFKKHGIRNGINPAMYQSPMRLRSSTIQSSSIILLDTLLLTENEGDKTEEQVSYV
Chain of Delta-type opioid receptor (P41143 whole entry): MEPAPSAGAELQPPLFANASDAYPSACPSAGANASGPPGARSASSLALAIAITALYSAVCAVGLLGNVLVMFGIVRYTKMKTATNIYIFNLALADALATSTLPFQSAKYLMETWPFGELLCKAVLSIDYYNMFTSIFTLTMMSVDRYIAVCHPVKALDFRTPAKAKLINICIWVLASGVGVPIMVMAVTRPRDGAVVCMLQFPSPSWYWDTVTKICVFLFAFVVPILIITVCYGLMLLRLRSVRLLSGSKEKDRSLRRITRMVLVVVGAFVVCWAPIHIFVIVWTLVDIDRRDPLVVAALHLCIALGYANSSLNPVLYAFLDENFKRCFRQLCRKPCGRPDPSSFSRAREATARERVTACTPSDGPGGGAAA
Chain of Neuronal acetylcholine receptor subunit alpha-4 (P43681 whole entry): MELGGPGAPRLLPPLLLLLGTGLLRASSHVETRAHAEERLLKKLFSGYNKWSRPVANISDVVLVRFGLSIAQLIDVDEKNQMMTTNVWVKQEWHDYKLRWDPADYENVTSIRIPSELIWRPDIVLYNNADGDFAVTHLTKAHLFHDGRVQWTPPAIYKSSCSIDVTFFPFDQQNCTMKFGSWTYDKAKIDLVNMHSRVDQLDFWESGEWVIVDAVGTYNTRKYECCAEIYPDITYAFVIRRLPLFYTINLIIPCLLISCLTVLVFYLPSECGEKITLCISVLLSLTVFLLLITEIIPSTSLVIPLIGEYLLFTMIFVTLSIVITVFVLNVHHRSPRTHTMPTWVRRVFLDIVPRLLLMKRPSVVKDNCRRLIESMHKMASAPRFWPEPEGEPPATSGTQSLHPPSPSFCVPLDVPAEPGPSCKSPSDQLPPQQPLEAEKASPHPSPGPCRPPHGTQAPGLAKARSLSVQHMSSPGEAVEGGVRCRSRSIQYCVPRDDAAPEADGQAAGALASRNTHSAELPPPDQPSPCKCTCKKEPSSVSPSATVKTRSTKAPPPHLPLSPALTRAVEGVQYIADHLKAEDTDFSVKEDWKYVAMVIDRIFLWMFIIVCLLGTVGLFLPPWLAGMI
Chain of Gamma-aminobutyric acid receptor subunit alpha-1 (P62813 whole entry): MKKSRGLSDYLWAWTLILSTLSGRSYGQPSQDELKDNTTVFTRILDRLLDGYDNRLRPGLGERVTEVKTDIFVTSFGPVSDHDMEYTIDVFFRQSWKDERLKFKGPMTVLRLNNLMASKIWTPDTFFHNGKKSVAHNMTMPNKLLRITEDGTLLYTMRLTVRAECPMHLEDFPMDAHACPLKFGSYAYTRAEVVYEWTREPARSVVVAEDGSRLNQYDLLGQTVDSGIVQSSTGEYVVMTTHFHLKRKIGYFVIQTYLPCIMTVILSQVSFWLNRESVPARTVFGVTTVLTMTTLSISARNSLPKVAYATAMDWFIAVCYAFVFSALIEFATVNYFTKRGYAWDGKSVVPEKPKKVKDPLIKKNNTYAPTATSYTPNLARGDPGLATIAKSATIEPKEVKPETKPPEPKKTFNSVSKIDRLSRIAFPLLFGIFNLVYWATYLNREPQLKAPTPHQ

Row | SMILES | AC50 [1] [µM] | AC50 [2] [µM] | AC50 [3] [µM] | AC50 [4] [µM] | AC50 [5] [µM] | AC50 [6] [µM] | AC50 [7] [µM] | AC50 [8] [µM] | AC50 [9] [µM] | AC50 [10] [µM] | AC50 [11] [µM] | AC50 (Motilin receptor) [µM]
1 | CC(C)/N=c1\cc2n(-c3ccc(Cl)cc3)c3ccccc3nc-2cc1Nc1ccc(Cl)cc1 [CLOFAZIMINE] | 26 | > 30 | > 30 | 20 | > 30 | > 30 | > 30 | > 30 | > 30 | > 30 | > 30 | > 30
2 | CCOCC(O)COc1ccc(NC(=O)CC[S+](C)C)cc1 (stereo unspecified) | > 30 | > 30 | > 30 | > 30 | > 30 | > 30 | > 30 | > 30 | > 30 | > 30 | > 30 | > 30
3 | O=C(O)[C@H]1/C(=C/CO)O[C@@H]2CC(=O)N21 [CLAVULANIC ACID] | > 30 | > 30 | > 30 | > 30 | > 30 | > 30 | > 30 | > 30 | > 30 | > 30 | > 30 | > 30
4 | O=C(c1ccccc1)c1ccc2n1CCC2C(=O)O (stereo unspecified) [KETOROLAC] | > 30 | > 30 | > 10 | > 30 | > 10 | > 30 | > 30 | 0.0239 | > 30 | > 30 | > 10 | > 10
5 | NCC1(CC(=O)O)CCCCC1 [GABAPENTIN] | > 30 | > 30 | > 30 | > 30 | > 30 | > 30 | > 30 | > 30 | > 30 | > 30 | > 30 | > 30
6 | CCOc1ccccc1OCCN[C@H](C)Cc1ccc(OC)c(S(N)(=O)=O)c1 [TAMSULOSIN] | > 30 | 6.4 | > 10 | > 10 | > 30 | > 30 | > 30 | > 30 | > 10 | > 30 | > 30 | > 10
7 | CCN(CCO)CCCC(C)Nc1ccnc2cc(Cl)ccc12 (stereo unspecified) [HYDROXYCHLOROQUINE] | > 30 | > 10 | > 10 | > 10 | > 10 | > 10 | > 30 | > 10 | > 10 | > 30 | > 10 | > 10
8 | CC(C)C[C@H](NC(=O)[C@H](Cc1ccccc1)NC(=O)c1cnccn1)B(O)O [BORTEZOMIB] | > 30 | > 30 | > 30 | > 30 | > 30 | > 30 | > 30 | > 30 | > 30 | > 30 | > 30 | > 30
9 | C[C@H](CCC(=O)O)[C@H]1CC[C@H]2[C@@H]3[C@H](O)C[C@@H]4C[C@H](O)CC[C@]4(C)[C@H]3CC[C@]12C [CHENODIOL] | > 30 | > 30 | > 30 | > 30 | > 30 | > 30 | > 30 | > 30 | > 30 | > 30 | > 30 | > 30
10 | Nc1c2c(nc3ccccc13)CCCC2O (stereo unspecified) [VELNACRINE] | > 30 | > 30 | > 30 | > 30 | > 30 | > 30 | > 30 | > 30 | > 30 | > 30 | > 30 | > 30
11 | N[C@@H](Cc1cc(I)c(Oc2cc(I)c(O)c(I)c2)c(I)c1)C(=O)O [LEVOTHYROXINE] | > 30 | > 30 | > 30 | > 30 | > 30 | > 30 | > 30 | > 30 | > 30 | > 30 | > 30 | > 30
12 | CC[N+](CC)(CCNC(=O)C(=O)NCC[N+](CC)(CC)Cc1ccccc1Cl)Cc1ccccc1Cl [AMBENONIUM] | > 30 | > 30 | > 30 | > 30 | > 30 | > 30 | > 30 | > 30 | > 30 | > 30 | 10 | > 30
13 | CN1CC2c3ccccc3Oc3ccc(Cl)cc3C2C1 (stereo unspecified) [ASENAPINE] | > 30 | 0.0013 | > 30 |  | > 30 | > 30 | 0.0006 | > 30 | > 30 | > 30 | 17 | > 30
14 | C[C@@H](O)[C@H]1C(=O)N2C(C(=O)O)=C(SCCN=CN)C[C@H]12 [IMIPENEM ANHYDROUS] | > 300 | > 300 | > 300 |  | > 300 | > 300 | > 300 | > 300 | > 300 | > 300 | > 300 | > 300

Reference: ChEMBL document CHEMBL5291721, “A preclinical secondary pharmacology resource illuminates target-adverse drug reaction associations of marketed drugs” (Nat Commun, 2023)
